We go through one cell line from the supplement of paper PMC10307832.

What all share (assay): relative viability (nuclei count vs DMSO), 5 days (fraction); higher = more cells survive
Compound in the test “TGX 221 + Lapatinib”: CC1=CN2C(=O)C=C(N=C2C(=C1)C(C)NC3=CC=CC=C3)N4CCOCC4 [TGX 221] + CS(=O)(=O)CCNCc1ccc(-c2ccc3ncnc(Nc4ccc(OCc5cccc(F)c5)c(Cl)c4)c3c2)o1 [Lapatinib] (partner 2 µM)
The essentials: (§1)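 Lung cancer cell lines, seeded in 1536-well plates, were treated the following day by pin tool with a single drug or with five library-drug doses (not always all listed) in √10 steps on top of a fixed anchor-drug dose. Cells were fixed and nuclei stained in one step after 5 days, and nuclei were counted. Relative viability is the nuclei count for treated wells divided by that for vehicle wells, reported as medians of duplicate plates.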

Compound in the test “TGX 221 + Navitoclax”: CC1=CN2C(=O)C=C(N=C2C(=C1)C(C)NC3=CC=CC=C3)N4CCOCC4 [TGX 221] + CC1(C)CCC(c2ccc(Cl)cc2)=C(CN2CCN(c3ccc(C(=O)NS(=O)(=O)c4ccc(N[C@H](CCN5CCOCC5)CSc5ccccc5)c(S(=O)(=O)C(F)(F)F)c4)cc3)CC2)C1 [Navitoclax] (partner 0.5 µM)
The essentials: as §1

Compound in test [1]: O=C(CCCCCCNC(=O)c1cnc(N(c2ccccc2)c2ccccc2)nc1)NO [Ricolinostat] + CC(C)C[C@H](NC(=O)[C@H](Cc1ccccc1)NC(=O)c1cnccn1)B(O)O [Bortezomib] (partner 0.002 µM)
The essentials:
as §1

Compound in test [2]: O=C(CCCCCCNC(=O)c1cnc(N(c2ccccc2)c2ccccc2)nc1)NO [Ricolinostat] + CC(=O)Nc1cccc(-n2c(=O)n(C3CC3)c(=O)c3c(Nc4ccc(I)cc4F)n(C)c(=O)c(C)c32)c1 [Trametinib] (partner 0.02 µM)
The essentials:
as §1

Take NCI-H1792: the relative viability is 0.782 with TGX 221 + Lapatinib (first compound 0.08 µM); 0.983 with TGX 221 + Lapatinib (first compound 0.253 µM); 0.814 in the test with TGX 221 + Lapatinib (first compound 0.8 µM); 0.846 with TGX 221 + Lapatinib (first compound 2.53 µM); 0.887 in the test with TGX 221 + Lapatinib (first compound 8 µM); 0.549 with TGX 221 + Navitoclax (first compound 0.08 µM). For the same cell line, the relative viability in the test with TGX 221 + Navitoclax (first compound 0.253 µM) was found to be 0.713; with TGX 221 + Navitoclax (first compound 0.8 µM), 0.591; with TGX 221 + Navitoclax (first compound 2.53 µM) it was 0.62; in the test with TGX 221 + Navitoclax (first compound 8 µM), 0.625; in test [1] (first compound 0.08 µM), 0.899; in test [1] (first compound 0.253 µM) it was 0.926. Besides, the relative viability in test [1] (first compound 0.8 µM) was 0.944; in test [1] (first compound 2.53 µM) it was 0.973; in test [2] (first compound 0.253 µM), 0.486; in test [2] (first compound 0.8 µM), 0.418; in test [2] (first compound 2.53 µM), 0.468.
